Assay results published in JPH07291935A, “スピロ化合物、その製造法および剤” (Takeda Chemical Industries Ltd, priority 1994, dated 1995).
pIC50: −log10 of the molar value. Like-named read-outs stand apart in the source and are kept apart here.

Key:
[1] = test system: serotonin (5-HT) uptake [セロトニン(5−HT)の取り込み]; assay: serotonin (5-HT) uptake inhibition; type: biochemical; conditions: rat whole brain preparation, 3H-5-HT 10 nM, 37℃, 5 min
[2] = test system: norepinephrine (NE) uptake [ノルエピネフリン(NE)の取り込み]; assay: norepinephrine (NE) uptake inhibition; type: biochemical; conditions: rat cerebral cortex, 3H-NE as substrate
[3] = target: T1, type B monoamine oxidase (MAO-B) [B型モノアミン酸化酵素(MAO−B)] (Rattus norvegicus, UniProt P19643); assay: biochemical
T1 sequence (P19643 1-520): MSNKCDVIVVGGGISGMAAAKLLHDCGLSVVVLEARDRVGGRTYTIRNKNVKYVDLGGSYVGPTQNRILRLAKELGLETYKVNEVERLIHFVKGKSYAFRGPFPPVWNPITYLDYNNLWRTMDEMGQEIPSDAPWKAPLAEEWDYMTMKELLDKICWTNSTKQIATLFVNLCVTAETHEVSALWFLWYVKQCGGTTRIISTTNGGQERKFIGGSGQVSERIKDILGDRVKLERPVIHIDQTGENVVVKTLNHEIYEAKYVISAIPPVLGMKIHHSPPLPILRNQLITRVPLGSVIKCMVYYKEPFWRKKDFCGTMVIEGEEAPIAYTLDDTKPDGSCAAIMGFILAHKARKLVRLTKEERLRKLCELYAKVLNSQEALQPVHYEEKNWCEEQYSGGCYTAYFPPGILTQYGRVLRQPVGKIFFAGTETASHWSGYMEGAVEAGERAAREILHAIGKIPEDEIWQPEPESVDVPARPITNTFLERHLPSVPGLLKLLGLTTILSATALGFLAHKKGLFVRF

[4] = test system: 45Ca2+ uptake [45Ca2+取り込み]; assay: 45Ca2+ uptake inhibition (veratrine-stimulated); type: biochemical; conditions: 10 μM; rat cerebral cortex crude synaptosomes; veratrine 30 μM; 37℃, 10 min
[5] = MAO-B, rat whole brain homogenate, 14C-phenylethylamine 10 μM, 37℃, 5 min, read-out: IC50

| SMILES | pIC50 [1] | pIC50 [2] | pIC50 [3, 5] | % inhibition rate (45Ca uptake) [4] [%] | pIC50 [3] |
| --- | --- | --- | --- | --- | --- |
| CCCN1CCCCC12CCc1cc(OCc3ccc(Cl)cc3)ccc1C2 (centres unmarked) [実施例9−8, 6−(4−クロロフェニルメトキシ)−3,4−ジヒドロ−1′−プロピルスピロ〔ナフタレン−2(1H),2′−ピペリジン〕 塩酸塩] | 6.74 | 7.46 | – | – | – |
| CCCN1CCCCC12CCc1cc(OCc3ccc(F)cc3)ccc1C2 (centres unmarked) [実施例9−21, 6−(4−フルオロフェニルメトキシ)−3,4−ジヒドロ−1′−プロピルスピロ〔ナフタレン−2(1H),2′−ピペリジン〕 塩酸塩] | 6.47 | 7.01 | 6.17 | – | – |
| COc1ccc2c(c1)CCC1(CCCCN1CCN1CCC(c3ccccc3)CC1)C2 (centres unmarked) [実施例7−9, 3,4−ジヒドロ−6−メトキシ−1′−〔2−(4−フェニルピペリジン−1−イル)エチル〕スピロ〔ナフタレン−2(1H),2′−ピペリジン〕 2塩酸塩] | – | – | – | 109 | – |
| CCCN1CCCCC12CCc1cc(OCc3cccc(Cl)c3)ccc1C2 (centres unmarked) [実施例9−7, 6−(3−クロロフェニルメトキシ)−3,4−ジヒドロ−1′−プロピルスピロ〔ナフタレン−2(1H),2′−ピペリジン〕 塩酸塩] | 6.15 | 7.23 | 5.79 | – | – |
| NC(=O)CN1CCCCC12CCc1cc(OCc3ccc(F)cc3)ccc1C2 (centres unmarked) [実施例9−32, {6−(4−フルオロフェニルメトキシ−3,4−ジヒドロスピロ〔ナフタレン−2(1H),2′−ピペリジン〕}−1′−イルアセトアミド 塩酸塩] | – | – | 6.28 | – | – |
| COc1ccc2c(c1)CCC1(CCCCN1CCCC1CCN(Cc3ccccc3)CC1)C2 (centres unmarked) [実施例5−14, 3,4−ジヒドロ−6−メトキシ−1′−〔3−(1−フェニルメチルピペリジン−4−イル)プロピル〕スピロ〔ナフタレン−2(1H),2′−ピペリジン〕 2塩酸塩] | 7.96 | 6.74 | – | 74 | – |
| COc1ccc2c(c1)CCC1(CCCCN1CCCCN1C(=O)c3ccccc3C1=O)C2 (centres unmarked) [実施例5−11, 3,4−ジヒドロ−6−メトキシ−1′−(4−フタルイミドブチル)スピロ〔ナフタレン−2(1H),2′−ピペリジン〕 塩酸塩] | 8.35 | 6.30 | – | – | – |
| COc1ccc2c(c1)CCC1(CCCCN1CCN1CCN(c3ccc(F)cc3)CC1)C2 (centres unmarked) [実施例7−5, 1′−〔2−(4−(4−フルオロフェニル)ピペラジン−1−イル)エチル〕−3,4−ジヒドロ−6−メトキシスピロ〔ナフタレン−2(1H),2′−ピペリジン〕 2塩酸塩] | 7.52 | 5.47 | – | 87 | – |
| CCCN1CCCCC12CCc1cc(OCc3ccccc3Cl)ccc1C2 (centres unmarked) [実施例9−6, 6−(2−クロロフェニルメトキシ)−3,4−ジヒドロ−1′−プロピルスピロ〔ナフタレン−2(1H),2′−ピペリジン〕 塩酸塩] | – | – | 5.60 | – | – |
| COc1ccc2c(c1)CC[C@@]1(CCCCN1CCN1CCN(c3cccc(C(F)(F)F)c3)CC1)C2 [実施例30−2, (S)−(−)−1’−〔2−4−(3−トリフルオロメチルフェニル)ピペラジン−1−イル)エチル〕−3,4−ジヒドロ−6−メトキシスピロ〔ナフタレン−2(1H),2’−ピペリジン〕 2塩酸塩] | 8.02 | 6.55 | – | – | – |
| CCCN1CCCCC12CCc1cc(OCc3ccccc3F)ccc1C2 (centres unmarked) [実施例9−19, 6−(2−フルオロフェニルメトキシ)−3,4−ジヒドロ−1′−プロピルスピロ〔ナフタレン−2(1H),2′−ピペリジン〕 塩酸塩] | 6.10 | 7.05 | 6.05 | – | – |
| CCCN1CCCCC12CCc1cc(OCc3ccccc3)ccc1C2 (centres unmarked) [実施例9−1, 3,4−ジヒドロ−6−フェニルメトキシ−1’−プロピルスピロ〔ナフタレン−2(1H),2’−ピペリジン〕 塩酸塩] | – | – | 6.55 | – | – |
| CCCN1CCCCC12CCc1cc(OCCc3ccccc3)ccc1C2 (centres unmarked) [実施例9−16, 3,4−ジヒドロ−6−(2−フェニルエトキシ)−1′−プロピルスピロ〔ナフタレン−2(1H),2′−ピペリジン〕 2塩酸塩] | – | – | 6.23 | – | – |
| COc1ccc2c(c1)CCC1(CCCCN1CCN1CCN(c3cccc(C(F)(F)F)c3)CC1)C2 (centres unmarked) [実施例7−6, 1′−〔2−(4−(3−トリフルオロメチルフェニル)ピペラジン−1−イル)エチル〕−3,4−ジヒドロ−6−メトキシスピロ〔ナフタレン−2(1H),2′−ピペリジン〕 2塩酸塩] | – | – | – | 106 | – |
| CCCN1CCCCC12CCc1cc(OCc3ccccc3C#N)ccc1C2 (centres unmarked) [実施例9−20, 6−(2−シアノフェニルメトキシ)−3,4−ジヒドロ−1′−プロピルスピロ〔ナフタレン−2(1H),2′−ピペリジン〕 塩酸塩] | 6.49 | 7.27 | – | – | – |
| CCCN1CCCCC12CCc1cc(OCc3cccc(C#N)c3)ccc1C2 (centres unmarked) [実施例9−9, 6−(3−シアノフェニルメトキシ)−3,4−ジヒドロ−1′−プロピルスピロ〔ナフタレン−2(1H),2′−ピペリジン〕 塩酸塩] | 6.55 | 7.21 | – | – | – |
| COc1ccc2c(c1)CCC1(CCCCN1CCCc1ccccc1)C2 (centres unmarked) [実施例5−9, 3,4−ジヒドロ−6−メトキシ−1′−(3−フェニルプロピル)スピロ〔ナフタレン−2(1H),2′−ピペリジン〕 塩酸塩] | – | – | – | 92 | – |
| COc1cccc(N2CCN(CCN3CCCCC34CCc3cc(OC)ccc3C4)CC2)c1 (centres unmarked) [実施例7−1, 3,4−ジヒドロ−6−メトキシ−1’−〔2−(4−(3−メトキシフェニル)ピペラジン−1−イル)エチル〕スピロ〔ナフタレン−2(1H),2’−ピペリジン〕 2塩酸塩] | 7.66 | 5.32 | – | 90 | – |
| CCCN1CCCCC12CCc1cc(OCc3ccccc3C)ccc1C2 (centres unmarked) [実施例9−18, 3,4−ジヒドロ−6−(2−メチルフェニルメトキシ)−1′−プロピルスピロ〔ナフタレン−2(1H),2′−ピペリジン〕 塩酸塩] | – | – | 5.83 | – | – |
| CCCN1CCCCC12CCc1cc(OCc3ccc(Cl)cc3Cl)ccc1C2 (centres unmarked) [実施例9−22, 6−(2,4−ジクロロフェニルメトキシ)−3,4−ジヒドロ−1′−プロピルスピロ〔ナフタレン−2(1H),2′−ピペリジン〕 塩酸塩] | 6.72 | 7.17 | – | – | – |
| COc1ccc2c(c1)CCC1(CCCCN1CCN1CCN(c3ccccc3Cl)CC1)C2 (centres unmarked) [実施例7−3, 1′−〔2−(4−(2−クロロフェニル)ピペラジン−1−イル)エチル〕−3,4−ジヒドロ−6−メトキシスピロ〔ナフタレン−2(1H),2′−ピペリジン〕 2塩酸塩] | – | – | – | 95 | – |
| CCCN1CCCCC12CCc1cc(OCc3ccsc3)ccc1C2 (centres unmarked) [実施例9−45, 3,4−ジヒドロ−1′−プロピル−6−(3−チエニルメトキシ)スピロ〔ナフタレン−2(1H),2′−ピペリジン〕 塩酸塩] | – | – | – | – | 7.18 |
| CCCN1CCCCC12CCc1cc(OCc3ccccc3OC)ccc1C2 (centres unmarked) [実施例9−23, 3,4−ジヒドロ−6−(2−メトキシフェニルメトキシ)−1′−プロピルスピロ〔ナフタレン−2(1H),2′−ピペリジン〕 塩酸塩] | – | – | 5.55 | – | – |
| COc1ccc2c(c1)CCC1(CCCCN1CCOc1ccccc1)C2 (centres unmarked) [実施例5−10, 3,4−ジヒドロ−6−メトキシ−1′−(2−フェノキシエチル)スピロ〔ナフタレン−2(1H),2′−ピペリジン〕 塩酸塩] | 8.02 | 6.08 | – | 88 | – |
